Data as given in patent US20170334899A1, “AMINO-SUBSTITUTED ISOTHIAZOLES” (Bayer Pharma Aktiengesellschaft, priority 2014, published 2017).
pIC50: −log10 of the molar value. Like-named read-outs stand apart in the source and are kept apart here.

Key:
[1] = tested on: human cervical tumor cell line HeLa (ATCC CCL-2); assay: SAC-Formation - Paclitaxel-Induced Assay; type: cell-based; conditions: Homo sapiens, HeLa, 24 h, HeLa cells, paclitaxel 0.05 μM, test range 0.005 μM-20 μM, read-out: IC50 [mol/l] SAC-Formation - Paclitaxel-Induced Assay
In short: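 HeLa cells incubated overnight at 37° C, then given paclitaxel (0.05 μM final) plus test compound (0.005–20 μM, 0.5% DMSO) together for 24 h at 37° C. Fixed cells stained for phospho-histone H3 Ser10 (mitotic cells) and Hoechst 33342 (cell count); imaging-derived mitotic index fitted by four-parameter Hill equation.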

HeLa = assay: Proliferation assay (crystal violet), HeLa; type: cell-based; conditions: HeLa cells, 4 days incubation, crystal violet staining, read-out: IC50 inhibition of proliferation, HeLa
In short: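 Seed 1000–5000 cells/well, 10% FCS; 24 h later replace medium and add compound (0.001–10 μM, 0.5% DMSO); incubate 4 d; glutaraldehyde fix, 0.1% crystal violet pH 3.0, elute with 10% acetic acid; A595; 4-parameter IC50.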

Question: `Cc1nsc(Nc2ccc(C#N)cn2)c1C(=O)Nc1ccc(OC2CCNCC2)nc1` [Example 28, 5-[(5-Cyanopyridin-2-yl)amino]-3-methyl-N-[6-(piperidin-4-yloxy)pyridin-3-yl]-1,2-thiazole-4-carboxannide] was tested. Which pIC50 [1] did it give?
Answer: 4.70

Question: What about the pIC50 (HeLa; Homo sapiens, HeLa, 96 h) of the same compound?
Answer: 5.43

Question: `Cc1nsc(Nc2ccc(C#N)cn2)c1C(=O)Nc1ccc(OC2CCN(CCF)CC2)nc1` [Example 29, 5-[(5-Cyanopyridin-2-yl)amino]-N-(6-{[1-(2-fluoroethyl)piperidin-4-yl]oxy}pyridin-3-yl)-3-methyl-1,2-thiazole-4-carboxamide] was tested. Which pIC50 [1] did it give?
Answer: 4.70

Question: And the pIC50 (HeLa; Homo sapiens, HeLa, 96 h)?
Answer: 5.00

Question: How did the pIC50 [1] turn out when `Cc1nsc(Nc2ccc(C#N)cn2)c1C(=O)Nc1ccc(OC2CCN(CC(F)(F)F)CC2)nc1` [Example 30, 5-[(5-Cyanopyridin-2-yl)amino]-3-methyl-N-(6-{[1-(2,2,2-trifluoroethyl)piperidin-4-yl]oxy}pyridin-3-yl)-1,2-thiazole-4-carboxamide] was run?
Answer: 6.38

Question: And the pIC50 (HeLa; Homo sapiens, HeLa, 96 h)?
Answer: 6.47

Question: `Cc1nsc(Nc2cnc3ccccc3n2)c1C(=O)Nc1ccc(OC2CCCN(C(=O)OC(C)(C)C)C2)nc1` (stereo not shown) [Example 31, tert-Butyl 3-{[5-({[3-methyl-5-(quinoxalin-2-ylamino)-1,2-thiazol-4-yl]carbonyl}-amino)pyridin-2-yl]oxy}piperidine-1-carboxylate] was tested. Which pIC50 [1] did it give?
Answer: 6.21

Question: What about the pIC50 (HeLa; Homo sapiens, HeLa, 96 h) of the same compound?
Answer: 5.92

Question: With `Cc1nsc(Nc2cnc3ccccc3n2)c1C(=O)Nc1ccc(OC2CCCNC2)nc1` (stereo not shown) [Example 32, 3-Methyl-N-[6-(piperidin-3-yloxy)pyridin-3-yl]-5-(quinoxalin-2-ylamino)-1,2-thiazole-4-carboxannide] as the compound, how does the pIC50 [1] read?
Answer: 4.96

Question: What about the pIC50 (HeLa; Homo sapiens, HeLa, 96 h) of the same compound?
Answer: 5.10

Question: With `Cc1nsc(Nc2cnc3ccccc3n2)c1C(=O)Nc1ccc(OC2CCCN(CC(F)F)C2)nc1` (stereo not shown) [Example 33, N-(6-{[1-(2,2-Difluoroethyl)piperidin-3-yl]oxy}pyridin-3-yl)-3-methyl-5-(quinoxalin-2-ylamino)-1,2-thiazole-4-carboxamide] as the compound, how does the pIC50 [1] read?
Answer: 7.13

Question: What about the pIC50 (HeLa; Homo sapiens, HeLa, 96 h) of the same compound?
Answer: 5.62

Question: With `Cc1nsc(Nc2cc(C#N)ccn2)c1C(=O)Nc1ccc(OC2CCCN(C(=O)OC(C)(C)C)C2)nc1` (stereo not shown) [Example 34, tert-Butyl 3({5-[({5-[(4-cyanopyridin-2-yl)amino]-3-methyl-1,2-thiazol-4-yl}-carbonyl)amino]pyridin-2-yl}oxy)piperidine-1-carboxylate] as the compound, how does the pIC50 [1] read?
Answer: 6.00

Question: What about the pIC50 (HeLa; Homo sapiens, HeLa, 96 h) of the same compound?
Answer: 5.51

Question: With `Cc1nsc(Nc2cnc(C(F)(F)F)cn2)c1C(=O)Nc1ccc(OCCNCCC(F)(F)F)nc1` [Example 323, 3-methyl-5-{[5-(trifluoromethyl)pyrazin-2-yl]amino}-N-(6-{2-[(3,3,3-trifluoropropyl)amino]ethoxy}pyridin-3-yl)-1,2-thiazole-4-carboxamide] as the compound, how does the pIC50 [1] read?
Answer: 6.10

Question: And the pIC50 (HeLa; Homo sapiens, HeLa, 96 h)?
Answer: 6.02

Question: With `Cc1nsc(Nc2cnc(C(F)(F)F)cn2)c1C(=O)Nc1ccc(OC2CCN(C(CF)CF)CC2)nc1` [Example 324, N-(6-{[1-(1,3-difluoropropan-2-yl)piperidin-4-yl]oxy}pyridin-3-yl)-3-methyl-5-{[5-(trifluoromethyl)pyrazin-2-yl]amino}-1,2-thiazole-4-carboxamide] as the compound, how does the pIC50 [1] read?
Answer: 6.06

Question: What about the pIC50 (HeLa; Homo sapiens, HeLa, 96 h) of the same compound?
Answer: 6.06

Question: How did the pIC50 [1] turn out when `Cc1nsc(Nc2cnc(C(F)(F)F)cn2)c1C(=O)Nc1ccc(OCC2CCCN(CCF)C2)nc1` (stereo not shown) [Example 325, N-(6-{[1-(2-fluoroethyl)piperidin-3-yl]methoxy}pyridin-3-yl)-3-methyl-5-{[5-(trifluoromethyl)pyrazin-2-yl]amino}-1,2-thiazole-4-carboxamide] was run?
Answer: 7.28

Question: And the pIC50 (HeLa; Homo sapiens, HeLa, 96 h)?
Answer: 6.21

Question: With `Cc1nsc(Nc2cnc(C(F)(F)F)cn2)c1C(=O)Nc1ccc(OCC2CCCN(CC(F)(F)F)C2)nc1` (stereo not shown) [Example 326, 3-methyl-N-(6-{[1-(2,2,2-trifluoroethyl)piperidin-3-yl]methoxy}pyridin-3-yl)-5-{[5-(trifluoromethyl)pyrazin-2-yl]amino}-1,2-thiazole-4-carboxamide] as the compound, how does the pIC50 [1] read?
Answer: 5.64

Question: What about the pIC50 (HeLa; Homo sapiens, HeLa, 96 h) of the same compound?
Answer: 6.52

Question: Which results are given for `Cc1nsc(Nc2cnc(C(F)(F)F)cn2)c1C(=O)Nc1ccc(OCC2CCCN(CC(F)F)C2)nc1` (stereo not shown) [Example 327, N-(6-{[1-(2,2-difluoroethyl)piperidin-3-yl]methoxy}pyridin-3-yl)-3-methyl-5-{[5-(trifluoromethyl)pyrazin-2-yl]amino}-1,2-thiazole-4-carboxamide]?
Answer: pIC50 [1]: 7.24; pIC50 (HeLa; Homo sapiens, HeLa, 96 h): 6.43

Question: How did the pIC50 [1] turn out when `Cc1nsc(Nc2cnc(C(F)(F)F)cn2)c1C(=O)Nc1ccc(OCC2CCCN(CCC(F)(F)F)C2)nc1` (stereo not shown) [Example 328, 3-methyl-5-{[5-(trifluoromethyl)pyrazin-2-yl]amino}-N-(6-{[1-(3,3,3-trifluoropropyl)piperidin-3-yl]methoxy}pyridin-3-yl)-1,2-thiazole-4-carboxamide] was run?
Answer: 7.43

Question: And the pIC50 (HeLa; Homo sapiens, HeLa, 96 h)?
Answer: 6.44

Question: Which results are given for `Cc1nsc(Nc2cnc(C(F)(F)F)cn2)c1C(=O)Nc1ccc(OC2CCCN(CCF)C2)nc1` (stereo not shown) [Example 329, N-(6-{[1-(2-fluoroethyl)piperidin-3-yl]oxy}pyridin-3-yl)-3-methyl-5-{[5-(trifluoromethyl)pyrazin-2-yl]amino}-1,2-thiazole-4-carboxamide]?
Answer: pIC50 [1]: 6.74; pIC50 (HeLa; Homo sapiens, HeLa, 96 h): 5.89

Question: What does the source list for `Cc1nsc(Nc2cnc(C(F)(F)F)cn2)c1C(=O)Nc1ccc(OC2CCCN(CC(F)F)C2)nc1` (stereo not shown) [Example 330, N-(6-{[1-(2,2-difluoroethyl)piperidin-3-yl]oxy}pyridin-3-yl)-3-methyl-5-{[5-(trifluoromethyl)pyrazin-2-yl]amino}-1,2-thiazole-4-carboxamide]?
Answer: pIC50 [1]: 7.60; pIC50 (HeLa; Homo sapiens, HeLa, 96 h): 5.92

Question: With `Cc1nsc(Nc2cnc(C(F)(F)F)cn2)c1C(=O)Nc1ccc(OC2CCCN(CC(F)(F)F)C2)nc1` (stereo not shown) [Example 331, 3-methyl-N-(6-{[1-(2,2,2-trifluoroethyl)piperidin-3-yl]oxy}pyridin-3-yl)-5-{[5-(trifluoromethyl)pyrazin-2-yl]amino}-1,2-thiazole-4-carboxamide] as the compound, how does the pIC50 [1] read?
Answer: 7.64

Question: What about the pIC50 (HeLa; Homo sapiens, HeLa, 96 h) of the same compound?
Answer: 6.59

Question: Which results are given for `Cc1nsc(Nc2cnc(C(F)(F)F)cn2)c1C(=O)Nc1ccc(OC2CCCN(CCC(F)(F)F)C2)nc1` (stereo not shown) [Example 332, 3-methyl-5-{[5-(trifluoromethyl)pyrazin-2-yl]amino}-N-(6-{[1-(3,3,3-trifluoropropyl)piperidin-3-yl]oxy}pyridin-3-yl)-1,2-thiazole-4-carboxamide]?
Answer: pIC50 [1]: 7.60; pIC50 (HeLa; Homo sapiens, HeLa, 96 h): 6.46

Question: With `Cc1nsc(Nc2cnc(C(F)(F)F)cn2)c1C(=O)Nc1ccc(OC2CCCN(C(CF)CF)C2)nc1` (stereo not shown) [Example 333, N-(6-{[1-(1,3-difluoropropan-2-yl)piperidin-3-yl]oxy}pyridin-3-yl)-3-methyl-5-{[5-(trifluoromethyl)pyrazin-2-yl]amino}-1,2-thiazole-4-carboxamide] as the compound, how does the pIC50 [1] read?
Answer: 6.70

Question: And the pIC50 (HeLa; Homo sapiens, HeLa, 96 h)?
Answer: 5.92

Question: How did the pIC50 [1] turn out when `Cc1nsc(Nc2cnc(C(F)(F)F)cn2)c1C(=O)Nc1ccc(F)c(OCC2CCCN(CC(F)F)C2)c1` (stereo not shown) [Example 334, N-(3-{[1-(2,2-difluoroethyl)piperidin-3-yl]methoxy}-4-fluorophenyl)-3-methyl-5-{[5-(trifluoromethyl)pyrazin-2-yl]amino}-1,2-thiazole-4-carboxamide] was run?
Answer: 7.25

Question: What about the pIC50 (HeLa) of the same compound?
Answer: 6.43

Question: With `Cc1nsc(Nc2cnc(C(F)(F)F)cn2)c1C(=O)Nc1ccc(F)c(OCC2CCCN(CCF)C2)c1` (stereo not shown) [Example 336, N-(4-fluoro-3-{[1-(2-fluoroethyl)piperidin-3-yl]methoxy}phenyl)-3-methyl-5-{[5-(trifluoromethyl)pyrazin-2-yl]amino}-1,2-thiazole-4-carboxamide] as the compound, how does the pIC50 [1] read?
Answer: 7.21

Question: What about the pIC50 (HeLa; Homo sapiens, HeLa, 96 h) of the same compound?
Answer: 6.41

Question: What does the source list for `Cc1nsc(Nc2cnc(C(F)(F)F)cn2)c1C(=O)Nc1ccc(F)c(OCC2CCCN(CC(F)(F)F)C2)c1` (stereo not shown) [Example 337, N-(4-fluoro-3-{[1-(2,2,2-trifluoroethyl)piperidin-3-yl]methoxy}phenyl)-3-methyl-5-{[5-(trifluoromethyl)pyrazin-2-yl]amino}-1,2-thiazole-4-carboxamide]?
Answer: pIC50 [1]: 7.29; pIC50 (HeLa; Homo sapiens, HeLa, 96 h): 6.43

Question: `Cc1nsc(Nc2cnc(C(F)(F)F)cn2)c1C(=O)Nc1ccc(F)c(OCC2CCCN(CCC(F)(F)F)C2)c1` (stereo not shown) [Example 338, N-(4-fluoro-3-{[1-(3,3,3-trifluoropropyl)piperidin-3-yl]methoxy}phenyl)-3-methyl-5-{[5-(trifluoromethyl)pyrazin-2-yl]amino}-1,2-thiazole-4-carboxamide] was tested. Which pIC50 [1] did it give?
Answer: 7.10

Question: What about the pIC50 (HeLa; Homo sapiens, HeLa, 96 h) of the same compound?
Answer: 6.35

Question: What does the source list for `Cc1nsc(Nc2cnc(C(F)(F)F)cn2)c1C(=O)Nc1ccc(F)c(OC[C@@H]2CCN(CC(F)(F)F)C2)c1` [Example 339, N-(4-fluoro-3-{[(3R)-1-(2,2,2-trifluoroethyl)pyrrolidin-3-yl]methoxy}phenyl)-3-methyl-5-{[5-(trifluoromethyl)pyrazin-2-yl]amino}-1,2-thiazole-4-carboxamide]?
Answer: pIC50 [1]: 7.92; pIC50 (HeLa; Homo sapiens, HeLa, 96 h): 6.42

Question: With `Cc1nsc(Nc2cnc(C(F)(F)F)cn2)c1C(=O)Nc1ccc(F)c(OC[C@@H]2CCN(CCC(F)(F)F)C2)c1` [Example 340, N-(4-fluoro-3-{[(3R)-1-(3,3,3-trifluoropropyl)pyrrolidin-3-yl]methoxy}phenyl)-3-methyl-5-{[5-(trifluoromethyl)pyrazin-2-yl]amino}-1,2-thiazole-4-carboxamide] as the compound, how does the pIC50 [1] read?
Answer: 7.46

Question: And the pIC50 (HeLa; Homo sapiens, HeLa, 96 h)?
Answer: 6.37

Question: `Cc1nsc(Nc2cnc(C(F)(F)F)cn2)c1C(=O)Nc1ccc(F)c(OC[C@H]2CCN(CCC(F)(F)F)C2)c1` [Example 399, N-(4-fluoro-3-{[(3S)-1-(3,3,3-trifluoropropyl)pyrrolidin-3-yl]methoxy}phenyl)-3-methyl-5-{[5-(trifluoromethyl)pyrazin-2-yl]amino}-1,2-thiazole-4-carboxamide] was tested. Which pIC50 (HeLa; Homo sapiens, HeLa, 96 h) did it give?
Answer: 6.19
